# Data taken from US9650395B2, “Antibacterial compounds and methods for use” (PTC Therapeutics, Inc., priority 2011, dated 2017).
# Experiments:
# [1] = test system: super sensitive Gram-negative Escherichia coli (E. coli) BAS849; experiment: Antibacterial activity, microbroth dilution MIC, E. coli BAS849; format: cell-based; conditions: Escherichia coli; E. coli BAS849, microbroth dilution; read-out: MIC, BAS849
# [2] = test system: control Gram-negative E. coli 25922 strain; experiment: Antibacterial activity, microbroth dilution MIC, E. coli 25922; format: cell-based, Escherichia coli; conditions: Escherichia coli; E. coli 25922, microbroth dilution; read-out: MIC, 25922
# [3] = test system: Gram-positive Staphylococcus aureus (S. aureus) 29213; experiment: Antibacterial activity, microbroth dilution MIC, S. aureus 29213; format: cell-based; conditions: Staphylococcus aureus; S. aureus 29213, microbroth dilution; read-out: MIC, 29213
# [4] = test system: quinolone resistant E. coli LZ3111; experiment: Antibacterial activity, MIC, quinolone resistant E. coli LZ3111; format: cell-based, Escherichia coli; conditions: Escherichia coli, read-out: MIC, LZ3111
# Description: The antibacterial activity from a microbroth dilution method may be presented as the minimum inhibitory concentration (MIC in […]). The MIC value is the lowest concentration of a drug which prevents macroscopically visible bacterial growth under test conditions.
# Mutations in these regions are known to confer a high level resistance to the quinolone class of antibiotics.
SMILES,MIC [1],MIC [2],MIC [3],MIC [4]
"CCc1cc(C(=O)O)c(=O)[nH]c1-c1ccc(N2CCC(N)CC2)cc1 [Cpd 228, 6-[4-(4-aminopiperidin-1-yl)phenyl]-5-ethyl-2-oxo-1,2-dihydropyridine-3-carboxylic acid]",12.5 to 150 mg/L,12.5 to 150 mg/L,12.5 to 150 mg/L,12.5 to 150 mg/L
"CCc1cc(C(=O)O)c(=O)[nH]c1-c1ccc(N2CCC(n3ccnn3)C2)cc1 (stereo not shown) [Cpd 230, 5-ethyl-2-oxo-6-{4-[3-(1H-1,2,3-triazol-1-yl)pyrrolidin-1-yl]phenyl}-1,2-dihydropyridine-3-carboxylic acid]",< 1 mg/L,1 to 3.5 mg/L,3.5 to 12.5 mg/L,12.5 to 150 mg/L
"CCc1cc(C(=O)O)c(=O)[nH]c1-c1ccc(N2CCC(C)(O)C2)cc1 (stereo not shown) [Cpd 233, 5-ethyl-6-[4-(3-hydroxy-3-methylpyrrolidin-1-yl)phenyl]-2-oxo-1,2-dihydropyridine-3-carboxylic acid]",< 1 mg/L,3.5 to 12.5 mg/L,12.5 to 150 mg/L,12.5 to 150 mg/L
"CCc1cc(C(=O)O)c(=O)[nH]c1-c1ccc(N2CCC(CNCc3ccccc3Cl)C2)cc1 (stereo not shown) [Cpd 234, 6-[4-(3-{[(2-chlorobenzyl)amino]methyl}pyrrolidin-1-yl)phenyl]-5-ethyl-2-oxo-1,2-dihydropyridine-3-carboxylic acid]",< 1 mg/L,1 to 3.5 mg/L,12.5 to 150 mg/L,12.5 to 150 mg/L
"CCc1cc(C(=O)O)c(=O)[nH]c1-c1ccc(N2CCC(C)(CN)C2)cc1 (stereo not shown) [Cpd 235, 6-{4-[3-(aminomethyl)-3-methylpyrrolidin-1-yl]phenyl}-5-ethyl-2-oxo-1,2-dihydropyridine-3-carboxylic acid]",1 to 3.5 mg/L,12.5 to 150 mg/L,12.5 to 150 mg/L,12.5 to 150 mg/L
"CCc1cc(C(=O)O)c(=O)[nH]c1-c1ccc(N2CCC(CNCc3cccc(Cl)c3)C2)cc1 (stereo not shown) [Cpd 236, 6-[4-(3-{[(3-chlorobenzyl)amino]methyl}pyrrolidin-1-yl)phenyl]-5-ethyl-2-oxo-1,2-dihydropyridine-3-carboxylic acid]",< 1 mg/L,1 to 3.5 mg/L,3.5 to 12.5 mg/L,12.5 to 150 mg/L
"CCc1cc(C(=O)O)c(=O)[nH]c1-c1ccc(N2CCC(CNCc3ccc(Cl)cc3)C2)cc1 (stereo not shown) [Cpd 237, 6-[4-(3-{[(4-chlorobenzyl)amino]methyl}pyrrolidin-1-yl)phenyl]-5-ethyl-2-oxo-1,2-dihydropyridine-3-carboxylic acid]",< 1 mg/L,< 1 mg/L,3.5 to 12.5 mg/L,12.5 to 150 mg/L
"CCc1cc(C(=O)O)c(=O)[nH]c1-c1ccc(N2CCC(CNCc3cccc(F)c3)C2)cc1 (stereo not shown) [Cpd 238, 5-ethyl-6-[4-(3-{[(3-fluorobenzyl)amino]methyl}pyrrolidin-1-yl)phenyl]-2-oxo-1,2-dihydropyridine-3-carboxylic acid]",< 1 mg/L,1 to 3.5 mg/L,12.5 to 150 mg/L,12.5 to 150 mg/L
"CCc1cc(C(=O)O)c(=O)[nH]c1-c1ccc(N2CCC(CNCc3ccc(F)cc3)C2)cc1 (stereo not shown) [Cpd 239, 5-ethyl-6-[4-(3-{[(4-fluorobenzyl)amino]methyl}pyrrolidin-1-yl)phenyl]-2-oxo-1,2-dihydropyridine-3-carboxylic acid]",< 1 mg/L,< 1 mg/L,12.5 to 150 mg/L,12.5 to 150 mg/L
"CCc1cc(C(=O)O)c(=O)[nH]c1-c1ccc(N2CCC(CNCc3ccccc3F)C2)cc1 (stereo not shown) [Cpd 240, 5-ethyl-6-[4-(3-{[(2-fluorobenzyl)amino]methyl}pyrrolidin-1-yl)phenyl]-2-oxo-1,2-dihydropyridine-3-carboxylic acid]",< 1 mg/L,1 to 3.5 mg/L,12.5 to 150 mg/L,12.5 to 150 mg/L
"CCc1cc(C(=O)O)c(=O)[nH]c1-c1ccc(N2CCC(CNCc3cccnc3)C2)cc1 (stereo not shown) [Cpd 241, 5-ethyl-2-oxo-6-[4-(3-{[(pyridin-3-ylmethyl)amino]methyl}pyrrolidin-1-yl)phenyl]-1,2-dihydropyridine-3-carboxylic acid]",< 1 mg/L,< 1 mg/L,12.5 to 150 mg/L,12.5 to 150 mg/L
"CCc1cc(C(=O)O)c(=O)[nH]c1-c1ccc(N2CCC(CNCc3ccncc3)C2)cc1 (stereo not shown) [Cpd 242, 5-ethyl-2-oxo-6-[4-(3-{[(pyridin-4-ylmethyl)amino]methyl}pyrrolidin-1-yl)phenyl]-1,2-dihydropyridine-3-carboxylic acid]",< 1 mg/L,1 to 3.5 mg/L,12.5 to 150 mg/L,12.5 to 150 mg/L
"CCc1cc(C(=O)O)c(=O)[nH]c1-c1ccc(N2CCC(CNCc3ccccn3)C2)cc1 (stereo not shown) [Cpd 243, 5-ethyl-2-oxo-6-[4-(3-{[(pyridin-2-ylmethyl)amino]methyl}pyrrolidin-1-yl)phenyl]-1,2-dihydropyridine-3-carboxylic acid]",< 1 mg/L,1 to 3.5 mg/L,12.5 to 150 mg/L,12.5 to 150 mg/L
